Data from ChEMBL document CHEMBL6074686 (Eur J Med Chem, 2025).
Activity calls are given as the source filed them. No cut-off for these calls is given here.

Tests used:
SK-OV-3 [1] = assay: Inhibition of cell migration in human SK-OV-3 cells assessed as wound closure ratio at 6.25 nM incubated for 24 hrs by wound healing assay (reference value: 100%); assay type: functional; design: scale not given: the % may be the effect or the level left
SK-OV-3 [2] = assay: Induction of cell cycle arrest in human SK-OV-3 cells assessed as upregulation of Cdc-2 expression at 25 to 50 nM incubated for 24 hrs by Western blotting analysis; assay type: functional, cell-based; conditions: dose 25-50 nM
Tubulin (Homo sapiens) = Tubulin (Homo sapiens) (UniProt P68371+Q9H4B7+P0DPH7+P68366+Q13509+Q71U36+P04350+Q3ZCM7+P07437+P68363+Q9BQE3+Q6PEY2+Q13885+Q9BVA1+Q9BUF5); assay: Inhibition of tubulin polymerization in human SK-OV-3 cells assessed as destruction of microtubule network at 20 nM incubated for 18 hrs by Alexa Fluor 488 staining based confocal immunofluorescent microscopic analysis; assay type: cell-based
MCF7 [3] = assay: Inhibition of cell migration in human MCF7 cells assessed as ratio of migrated cells at 12.5 nM incubated for 24 hrs by crystal violet staining based inverted microscopic analysis (reference value: 100%); assay type: functional; design: scale not given: the % may be the effect or the level left
A549 = assay: Antitumor activity against human A549 cells assessed as reduction in cell viability incubated for 72 hrs by CCK8 assay; assay type: functional, cell-based; conditions: A549, 72 h
SK-OV-3 [4] = assay: Inhibition of cell migration in human SK-OV-3 cells assessed as area of migrated cells at 10 nM incubated for 24 hrs by crystal violet staining based inverted microscopic analysis (reference value: 30.1 +/- 1.3 mm^3); assay type: functional
MCF7 [5] = assay: Induction of apoptosis in human MCF7 cells assessed as downregulation of Bax expression at 25 to 50 nM incubated for 24 hrs by Western blotting analysis; assay type: functional, cell-based; conditions: dose 25-50 nM
MCF7 [6] = assay: Inhibition of colony formation in human MCF7 cells at 25 nM incubated for 72 hrs by crystal violet staining based assay relative to control; assay type: functional
MDA-MB-231 = assay: Antitumor activity against human MDA-MB-231 cells assessed as reduction in cell viability incubated for 72 hrs by CCK8 assay; conditions: MDA-MB-231, 72 h
MCF7 [7] = assay: Inhibition of cell migration in human MCF7 cells assessed as wound closure at 2.5 nM incubated for 24 hrs by wound healing assay (reference value: 44.5 +/- 8.8%); assay type: functional; design: scale not given: the % may be the effect or the level left
[8] = Toxicity in female BALB/c nude mouse xenografted with human SK-OV-3 cells assessed as pathological changes in heart at 5 to 10 mg/kg, […] via tail vein once every 2 to 3 days by H and E staining based analysis; assay type: organism-based; conditions: in vivo, dose lower 5 mg/kg, time lower 2 day, dose upper 10 mg/kg, time upper 3 day
SK-OV-3 [9] = assay: Inhibition of colony formation in human SK-OV-3 cells incubated for 12 days by crystal violet staining based assay; assay type: functional, cell-based; conditions: dose 1.25-20 nM, time 12.0 day
SK-OV-3 [10] = assay: Inhibition of cell migration in human SK-OV-3 cells assessed as ratio of migrated cells at 10 nM incubated for 24 hrs by Transwell assay (reference value: 100 %); assay type: functional; design: scale not given: the % may be the effect or the level left
MCF7 [11] = assay: Antitumor activity against human MCF7 cells assessed as reduction in cell viability incubated for 72 hrs by CCK8 assay; assay type: functional, cell-based; conditions: MCF7, 72 h
SK-OV-3 [12] = assay: Induction of cell cycle arrest in human SK-OV-3 cells assessed as increase in G2/M phase cells at 20 nM incubated for 24 hrs PI staining based flow cytometric analysis (reference value: 24.6 +/- 2.0%); assay type: functional
MCF7 [13] = assay: Induction of apoptosis in human MCF7 cells assessed as upregulation of cleaved-PARP expression at 25 to 50 nM incubated for 24 hrs by Western blotting analysis; assay type: functional, cell-based; conditions: dose 25-50 nM
[14] = Toxicity in female BALB/c nude mouse xenografted with human SK-OV-3 cells assessed as drug tolerance by measuring body weight loss at 15 mg/kg, administered via tail vein for 5 days and measured daily; assay type: organism-based; conditions: in vivo, iv, 120 h, time 5 day
MCF7 [15] = assay: Inhibition of cell migration in human MCF7 cells assessed as increase in cell density at 0 to 10 nM incubated for 24 hrs by wound healing assay; assay type: functional, cell-based; conditions: dose 0-10 nM
[16] = Toxicity in female BALB/c nude mouse xenografted with human SK-OV-3 cells assessed as pathological changes in liver at 5 to 10 mg/kg, […] via tail vein once every 2 to 3 days by H and E staining based analysis; assay type: organism-based; conditions: in vivo, dose lower 5 mg/kg, time lower 2 day, dose upper 10 mg/kg, time upper 3 day
MCF7 [17] = assay: Inhibition of cell migration in human MCF7 cells assessed as increase in cell density at 20 nM incubated for 24 hrs by wound healing assay; assay type: functional, cell-based
[18] = Toxicity in female BALB/c nude mouse xenografted with human SK-OV-3 cells assessed as effect on body weight at 5 to 10 mg/kg, […] via tail vein once every 2 to 3 days; assay type: organism-based; conditions: in vivo, dose lower 5 mg/kg, time lower 2 day, dose upper 10 mg/kg, time upper 3 day
SK-OV-3 [19] = assay: Inhibition of cell migration in human SK-OV-3 cells assessed as decrease in cell density at 25 to 50 nM incubated for 24 hrs by wound healing assay; assay type: functional, cell-based; conditions: dose 25-50 nM
[20] = Toxicity in female BALB/c nude mouse xenografted with human SK-OV-3 cells assessed as pathological changes in spleen at 5 to 10 mg/kg, […] via tail vein once every 2 to 3 days by H and E staining based analysis; assay type: organism-based; conditions: in vivo, dose lower 5 mg/kg, time lower 2 day, dose upper 10 mg/kg, time upper 3 day
MCF7 [21] = assay: Induction of apoptosis in human MCF7 cells assessed as downregulation of Bcl-2 expression incubated for 24 hrs by Western blotting analysis; assay type: functional, cell-based
SK-OV-3 [22] = assay: Induction of cell cycle arrest in human SK-OV-3 cells assessed as downregulation of Cdc-25c expression incubated for 24 hrs by Western blotting analysis; assay type: functional, cell-based; conditions: dose 25-100 nM
MCF7 [23] = assay: Inhibition of cell migration in human MCF7 cells assessed as area of migrated cells at 12.5 nM incubated for 24 hrs by crystal violet staining based inverted microscopic analysis (reference value: 18.5 +/- 0.3 mm^3); assay type: functional
SK-OV-3 [24] = assay: Inhibition of cell migration in human SK-OV-3 cells assessed as reduction in wound closure at 50 nM incubated for 24 hrs by wound healing assay (reference value: 21.8 +/- 7.6%); assay type: functional; conditions: SK-OV-3, 24 h, values are per cent of control
SK-OV-3 [25] = assay: Inhibition of colony formation in human SK-OV-3 cells at 2.5 nM incubated for 12 days by crystal violet staining based assay relative to control; assay type: functional; conditions: SK-OV-3, 288 h, time 12 day
MCF7 [26] = assay: Inhibition of cell migration in human MCF7 cells assessed as wound closure at 1.25 nM incubated for 24 hrs by wound healing assay (reference value: 44.5 +/- 8.8%); assay type: functional; design: scale not given: the % may be the effect or the level left
SK-OV-3 [27] = assay: Induction of apoptosis in human SK-OV-3 cells assessed as increase in apoptotic cells at 2.5 to 40 nM by IncuCyte live-cell imaging analysis; assay type: functional, cell-based; conditions: dose 2.5-40 nM, time lower 24.0 hrs, time upper […]
SK-OV-3 [28] = assay: Inhibition of cell migration in human SK-OV-3 cells assessed as reduction in wound closure at 25 nM incubated for 24 hrs by wound healing assay (reference value: 21.8 +/- 7.6%); assay type: functional; conditions: SK-OV-3, 24 h, values are per cent of control
MCF7 [29] = assay: Inhibition of cell migration in human MCF7 cells assessed as wound closure ratio at 20 nM incubated for 24 hrs by wound healing assay (reference value: 100%); assay type: functional; design: scale not given: the % may be the effect or the level left
SK-OV-3 [30] = assay: Inhibition of cell migration in human SK-OV-3 cells assessed as ratio of migrated cells at 20 nM incubated for 24 hrs by Transwell assay (reference value: 100 %); assay type: functional; design: scale not given: the % may be the effect or the level left

CNc1nc(N2CCCc3cc(OC)ccc32)c2cc(F)ccc2n1
Activity (SK-OV-3 [1]): 84.3%
Activity (SK-OV-3 [2]): Active
inhibition (Tubulin (Homo sapiens)): Active
Activity (MCF7 [3]): 60.4%
IC50 (A549): 2.7 nM
Activity (SK-OV-3 [4]): 6.8 mm3
Activity (MCF7 [5]): inactive
inhibition at 0.025 µM (MCF7 [6]): 32.8%
IC50 (MDA-MB-231): 1 nM
Activity (MCF7 [7]): 44%
Activity [8]: Non-toxic
inhibition (SK-OV-3 [9]): Dose-dependent-effect
Activity (SK-OV-3 [10]): 22.7%
IC50 (MCF7 [11]): 0.4 nM
Activity (SK-OV-3 [12]): 90.6%
Activity (MCF7 [13]): Active
Activity [14]: Toxic
inhibition (MCF7 [15]): Active
Activity [16]: Non-toxic
inhibition (MCF7 [17]): Active; Increase In Cell Density Was Notably Slowed Down
Activity [18]: Non-toxic
inhibition (SK-OV-3 [19]): Active
Activity [20]: Non-toxic
Activity (MCF7 [21]): Active
Activity (SK-OV-3 [22]): Dose-dependent-effect
Activity (MCF7 [23]): 11.2 mm3
response, % of control at 0.05 µM (SK-OV-3 [24]): 4.9%
inhibition at 0.0025 µM (SK-OV-3 [25]): 56.2%
Activity (MCF7 [26]): 47%
Activity (SK-OV-3 [27]): Time-dependent-effect
response, % of control at 0.025 µM (SK-OV-3 [28]): 11.2%
Activity (MCF7 [29]): 72.4%
Activity (SK-OV-3 [30]): 11.9%
